Laboratory results as given in patent EP0720987A1, “Acylated pseudopeptides containing trifluoromethyl substituted 2-azabicyclooctane” (BAYER AG, priority 1995, dated 1996).

Legend:
HIV-1-Protease = molecular target: T1, HIV-1-Protease (Human immunodeficiency virus type 1 group M subtype B, UniProt P04585); experiment: HIV-specific protease enzyme test (cleavage of synthetic peptide by purified HIV protease, RP-HPLC analysis); format: biochemical; settings: synthetic peptide substrate imitating Gag precursor cleavage site; for IC50: read-out: HIV-1-Protease-Inhibition IC50
T1 construct: Gereinigte HIV-Protease wurde mit synthetischem Peptid
Description: Es wurde überraschend gefunden, daß die Verbindungen der allgemeinen Formel (I) eine außerordentlich starke Wirkung gegen Retroviren besitzen. Dies wird mit einem HIV-spezifischen Protease-Enzymtest belegt.
Die Ergebnisse der unten aufgeführten Beispiele wurden nach dem in den folgenden Literaturangaben [vgl. Hansen, J., Billich, S., Schulze, T., Sukrow, S. and Mölling, K. (1988), EMBO Journal, Vol, 7, No. 6, pp. 1785 - 1791] beschriebenen HIV-Testsystem ermittelt: Gereinigte HIV-Protease wurde mit synthetischem Peptid, das eine Schnittstelle im Gag-Precursor-Protein imitiert und eine in vivo-Spaltstelle der HIV-Protease darstellt, inkubiert. Die entstandenen Spaltprodukte des synthetischen Peptids wurden über Reverse Phase High Performance Liquid Chromatography (RP-HPLC) analysiert. Die angegebenen IC50Werte beziehen sich auf die Substanzkonzentration, die unter den oben aufgeführten Testbedingungen eine 50%ige Hemmung der Protease-Aktivität bewirkt.

HIV = HIV infection in cell culture (PBL), inhibition of virus-induced syncytia formation; format: cell-based; settings: Human immunodeficiency virus 1, Lymphocyte, 72 h; HIV-infected normal human blood lymphocytes (PBL's); 50% suppression of virus-induced syncytia, read microscopically day 3 to 6 after infection
Description: Außerdem zeigten die erfindungsgemäßen Verbindungen Wirkung in Lentivirus infizierten Zellkulturen. Dies konnte am Beispiel des HIV-Virus gezeigt werden.
HIV-Infektion in Zellkultur
Der HIV-Test wurde mit geringen Modifikationen nach der Methode von Pauwels et al. [vgl. Journal of Virological Methods 20, (1988), 309-321] durchgeführt.
Normale menschliche Blutlymphozyten (PBL's) wurden über Ficoll-Hypaque angereichert und im RPMI 1640, 20% fötales Kälberserum mit Phythaemagglutinin (90 µg/ml) und Interleukin-2 (40 U/ml) stimuliert. Zur Infektion mit dem infektiösen HIV wurden PBL's pelletiert und das Zellpellet wurde anschließend in 1 ml HIV-Virusadsorptionslösung suspendiert und 1 Stunde bei 37°C inkubiert.
Die Virusadsorptionslösung wurde zentrifugiert und das infizierte Zellpellet in Wachstumsmedium aufgenommen, so daß 1 x 10^5 Zellen pro ml eingestellt waren. Die derart infizierten Zellen wurden zu 1 x 10^4 Zellen/Napf in die Näpfe von 96er Mikrotiterplatten pipettiert.
Die erste vertikale Reihe der Mikrotiterplatte enthielt nur Wachstumsmedium und Zellen, die nicht infiziert, aber ansonsten genauso wie oben beschrieben, behandelt worden waren (Zellkontrolle). Die zweite vertikale Reihe der Mikrotiterplatte erhielt nur HIV-infizierte Zellen (Viruskontrolle) in Wachstumsmedium. Die übrigen Näpfe enthielten die erfindungsgemäßen Verbindungen in unterschiedlichen Konzentrationen, ausgehend von den Näpfen der 3. vertikalen Reihe der Mikrotiterplatte, von der die Prüfsubstanzen in 2er Schritten 2^10fach verdünnt wurden.
Die Testansätze wurden so lange bei 37°C inkubiert, bis in der unbehandelten Viruskontrolle die für das HIV typische Syncytienbildung auftrat (zwischen Tag 3 und 6 nach Infektion), die dann mikroskopisch ausgewertet wurde. In der unbehandelten Viruskontrolle resultierten unter diesen Testbedingungen etwa 20 Syncytien, währen die unbehandelte Zellkontrolle keine Syncytien aufwies. […]

Row | Structure (SMILES) | HIV-1-Protease-Inhibition IC95 (HIV-1-Protease) | IC50 (HIV-1-Protease) [nM] | IC50 (HIV) [nM]
1 | CC(=O)O[C@H](CN1[C@H](C(F)(F)F)C[C@@H]2CCC[C@@H]21)[C@H](Cc1ccccc1)NC(=O)[C@H](CC(N)=O)NC(=O)c1cnc2cc(C)c(C)cc2n1 [Beispiel 3] | 2,5 x 10^-8 Mol/l | 1.5 | 120
2 | CCOC(=O)CCC(=O)O[C@H](CN1[C@H](C(F)(F)F)C[C@@H]2CCC[C@@H]21)[C@H](Cc1ccccc1)NC(=O)[C@H](CC(N)=O)NC(=O)c1ccc2ccccc2n1 [Beispiel 1, (2R,3S)-3-(Chinolin-2-yl-L-asparaginyl)-amino-1-[(S,S,S)-3-trifluormethyl-2-azabicylco[3.3.0]octan-2-yl}-2-(3-ethoxycarbonyl)propionyl-4-phenylbutan] |  | 320000 | 108
3 | CC(=O)O[C@H](CN1[C@H](C(F)(F)F)C[C@@H]2CCC[C@@H]21)[C@H](Cc1ccccc1)NC(=O)[C@H](CC(N)=O)NC(=O)c1ccc2ccccc2n1 [Beispiel 2] | 3,3 x 10^-5 Mol/l | 1100 | 612
